Measured values: US9314468B2, “Chemokine receptor modulators” (Altiris Therapeutics, Inc., priority 2008, dated 2016)
Structures can show the parent of a compound that is named as a salt.

What was measured:
CXCR4 [1] = biological target: T1, CXCR4 (Homo sapiens (Human), UniProt P61073); assay: Cellular impedance change induced by SDF-1a (cellular dielectric spectroscopy); assay type: cell-based; details: HeLa cells, endogenous CXCR4, EC50 concentration of SDF-1a, 30 minutes; read-out: Antagonist IC50
Method: This assay measures the change in impedance that occurs when cells are stimulated with SDF-1a. Changes in shape and cytoskeleton result in a change of impedance that is dependent on the activation of the CXCR4 receptor. This assay is contracted to MDS Pharma Services and performed as described in http://discovery.mdsps.com/Catalog/Services/Screening/CellKey/AssayDetails.aspx?id=7 (Assay 930070). Briefly, human HeLa cells expressing endogenous CXCR4 are grown in vitro and receptor activation in live cells is measured using cellular dielectric spectroscopy (CDS).

CXCR4 [2] = biological target: T1, CXCR4; assay: Functional calcium mobilization assay (SDF-1α induced); assay type: cell-based; details: Table 9, selected compounds; read-out: Ca Flux IC50
Method: Functional modulation of CXCR4 was determined by calcium mobilization assay using leukemic lymphoid CEM cells, which naturally express high levels of CXCR4. Generally, the assay is carried out as follows: Cells are grown in vitro to confluency. On the day of the assay, cells are removed from the incubator, culture medium removed and replaced with a calcium sensitive dye (Calcium3 assay kit; Molecular Devices, Sunnyvale, Calif.). The cells are allowed to dye load for 45-60 min at 37° C. in the cell culture incubator and then allowed to equilibrate to room temperature for no more than 15 min before assay.
Compound plates were generated containing up to 3% dimethyl sulfoxide in media kept at room temperature. Test compounds were added to the cells at a 1:3 dilution, and calcium mobilization was measured using a Flex Station fluorescence imager (Molecular Devices). This first read was used to determine direct agonist activation of the CXCR4 receptor by the test compounds. […] Full dose response curves were generated daily for SDF-1a to calculate IC50 concentrations. The IC50 values are reported. In cases, where one was not determined, a percent inhibition at the 1 μM concentration was extrapolated.
Functional calcium mobilization assay was conducted as described in Example 27.

[3] = Cytotoxicity assay, 6 days; assay type: cell-based; details: human, CCRF-CEM cells
Method: Cytotoxicity of the compounds was assessed by the following assay. CCRF-CEM cells in media (RPMI 1640, 15% FBS, Pen/Strep., 1% non-essential amino acids) are incubated with various concentrations of test compound for 6 days undisturbed. Cell number relative to no compound controls is determined using either Serotec's “Alamar blue” per manufacturers protocol or Promega's “Cell Titer 96 Aqueous One Solution Cell Proliferation Assay” kit per manufacturers protocol. The number cells not surviving after test compound administration is determined for each concentration tested and the EC50 (concentration of compound in which 50% of the cells survive) is determined

hERG potassium channel = hERG potassium channel (Homo sapiens (Human), UniProt Q12809); assay: hERG potassium channel current, automatic patch clamp; assay type: cell-based; details: human, mammalian cells expressing hERG potassium channel
Method: (§1) The in vitro effects of the selected compounds on the hERG (human ether-á-go-go-related gene) potassium channel current (a surrogate for IKr, the rapidly activating, delayed rectifier cardiac potassium current) expressed in mammalian cells were evaluated at room temperature using the PatchXpress 7000A (Molecular Devices), an automatic parallel patch clamp system.

T-tropic HIV = assay: Phenoscreen HIV entry inhibition assay; assay type: cell-based; details: Human immunodeficiency virus 1, read-out: IC50 for viral entry inhibition
Method: A selected set of compounds are tested for their ability to inhibit the cellular entry of T-tropic HIV. The assay for this inhibition is carried out on a contractual basis at Monogram Biosciences, Inc. using their well established Phenoscreen™ assay. Briefly, HIV strains of interest are tagged with a luciferase indicator gene to create an appropriate test vector. The test vector is amplified through transfection and the resulting virus is incubated in the presence of target host cells where intracellular […] activity then becomes a measure of infection. Amplified virus is exposed to target host cells in the presence of a range of test drug concentrations to determine IC50 measurements of entry inhibition. A modification of this test is further reapplied as a novel drug assay used in partnership with a number of pharmaceutical companies to test the effectiveness of novel entry inhibitors that target specific chemokines. It can used to detect activity against T-tropic, M-tropic, and dual-tropic viruses and Monogram Biosciences has a large bank of over 10,000 different virus strains to ultimately asses the range of applicability of our chemokine modulators. Certain compounds are tested to establish efficacy in a number of viral strains.

[4] = in vivo; cited from earlier work
[5] = biological target: hERG (human ether-á-go-go-related gene) potassium channel (Homo sapiens (Human), UniProt Q12809); assay: hERG potassium channel current, automatic patch clamp; assay type: cell-based; details: PatchXpress, 5 minutes exposure, room temperature
Method: as §1

HIV = details: MT-4 cells; read-out: concentration required for 50% protection of HIV-induced cytopathogenicity; cited from earlier work
MT-4 cells = details: cited from earlier work

T1 sequence (P61073 whole entry): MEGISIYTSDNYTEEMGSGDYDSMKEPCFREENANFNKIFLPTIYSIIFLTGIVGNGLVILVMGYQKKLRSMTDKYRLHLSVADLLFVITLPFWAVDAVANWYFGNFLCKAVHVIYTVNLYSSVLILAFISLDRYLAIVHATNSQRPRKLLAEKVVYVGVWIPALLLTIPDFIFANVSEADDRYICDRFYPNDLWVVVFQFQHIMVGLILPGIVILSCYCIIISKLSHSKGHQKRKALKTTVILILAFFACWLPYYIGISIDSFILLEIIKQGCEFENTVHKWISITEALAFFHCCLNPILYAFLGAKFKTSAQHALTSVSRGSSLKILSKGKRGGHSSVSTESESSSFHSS
Sequence of hERG (human ether-á-go-go-related gene) potassium channel (Q12809 whole entry): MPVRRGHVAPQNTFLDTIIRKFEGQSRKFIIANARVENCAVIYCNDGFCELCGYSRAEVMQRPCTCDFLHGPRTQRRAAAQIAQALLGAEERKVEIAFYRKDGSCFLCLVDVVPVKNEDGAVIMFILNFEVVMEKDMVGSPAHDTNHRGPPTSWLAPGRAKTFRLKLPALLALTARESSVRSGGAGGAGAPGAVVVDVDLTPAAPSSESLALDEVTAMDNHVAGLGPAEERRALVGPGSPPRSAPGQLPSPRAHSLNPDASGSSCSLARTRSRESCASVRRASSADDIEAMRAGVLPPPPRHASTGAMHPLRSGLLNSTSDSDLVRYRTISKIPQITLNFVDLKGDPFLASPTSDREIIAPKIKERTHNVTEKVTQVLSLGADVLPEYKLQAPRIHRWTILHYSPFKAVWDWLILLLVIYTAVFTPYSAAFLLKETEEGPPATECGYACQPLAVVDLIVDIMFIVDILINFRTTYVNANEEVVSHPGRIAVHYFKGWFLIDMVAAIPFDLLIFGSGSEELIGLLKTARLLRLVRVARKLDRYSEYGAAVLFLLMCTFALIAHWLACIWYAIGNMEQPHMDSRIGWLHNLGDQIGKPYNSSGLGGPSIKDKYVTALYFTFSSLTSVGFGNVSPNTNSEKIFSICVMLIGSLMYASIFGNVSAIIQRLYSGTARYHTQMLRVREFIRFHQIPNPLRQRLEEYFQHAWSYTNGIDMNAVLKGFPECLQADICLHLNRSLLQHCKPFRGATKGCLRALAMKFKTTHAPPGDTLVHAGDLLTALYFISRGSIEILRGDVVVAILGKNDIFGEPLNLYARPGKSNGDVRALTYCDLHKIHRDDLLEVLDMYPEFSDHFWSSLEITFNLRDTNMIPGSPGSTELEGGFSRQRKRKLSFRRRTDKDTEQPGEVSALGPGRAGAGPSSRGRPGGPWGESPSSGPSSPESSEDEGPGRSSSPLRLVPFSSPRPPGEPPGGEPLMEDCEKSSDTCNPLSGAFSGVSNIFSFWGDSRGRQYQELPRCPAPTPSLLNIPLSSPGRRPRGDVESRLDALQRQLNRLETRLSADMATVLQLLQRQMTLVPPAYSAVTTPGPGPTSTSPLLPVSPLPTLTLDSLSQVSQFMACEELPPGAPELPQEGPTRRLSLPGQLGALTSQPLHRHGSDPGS
Sequence of hERG potassium channel (Q12809 whole entry): as above

Compound: NCCCCN(Cc1nccc2c3ccccc3n(CCN3CCNCC3)c12)C1CCCc2cccnc21 (stereo not drawn)
- IC50 (CXCR4 [1]): 5.7 nM

Compound: C#CCn1c2ccccc2c2ccnc(CN(CCCCN)C3CCCc4cccnc43)c21 (stereo not drawn)
- IC50 (CXCR4 [1]): 5.5 nM

Compound: NCCCCN(Cc1nccc2c3ccccc3n(CC(=O)N3CCOCC3)c12)C1CCCc2cccnc21 (stereo not drawn)
- IC50 (CXCR4 [1]): 5.6 nM

Compound: O=C(Cn1c2ccccc2c2ccnc(CN(CCCN3CCNCC3)[C@H]3CCCc4cccnc43)c21)C1CCOCC1
- IC50 (CXCR4 [2]): 44 nM
- EC50 at 6 days [3]: 30000 nM
- inhibition at 5 min, 10 µM (hERG potassium channel): 25%

Compound: NCCCCN(Cc1nccc2c1[nH]c1ccccc12)C1CCCc2cccnc21 (stereo not drawn) [A, N-((9H-pyrido[3,4-b]indol-1-yl)methyl)-N-(4-aminobutyl)-5,6,7,8-tetrahydroquinolin-8-amine tetrahydrochloride]
- IC50 (T-tropic HIV): ≤ 10000 nM

Compound: c1ccc(-n2cc(CN(CCCCNCc3ccccn3)C3CCCc4cccnc43)nn2)cc1 (stereo not drawn) [AB, N1-((1-phenyl-1H-1,2,3-triazol-4-yl)methyl)-N4-(pyridin-2-ylmethyl)-N1-(5,6,7,8-tetrahydroquinolin-8-yl)butane-1,4-diamine hydrochloride]
- IC50 (T-tropic HIV): ≤ 10000 nM

Compound: c1cc(CN2CCCNCCNCCCNCC2)ccc1CN1CCCNCCNCCCNCC1 [AMD3100]
- side effect in clinical study [4]: cardiac-related side effect

Compound: CC(C)CN(CCC[C@H](NC1CCCc2cccnc21)C(=O)N[C@H](C)c1cccc2ccccc12)CC(C)C (stereo partly drawn) [AY, (S)-5-(diisobutylamino)-N-((R)-1-(naphthalen-1-yl)ethyl)-2-(5,6,7,8-tetrahydroquinolin-8-ylamino)pentanamide trihydrochloride]
- IC50 (T-tropic HIV): ≤ 10000 nM

Compound: NCCCCN(Cc1cccc2cc[nH]c12)C1CCCc2cccnc21 (stereo not drawn) [B, N1-((1H-indol-7-yl)methyl)-N1-(5,6,7,8-tetrahydroquinolin-8-yl)butane-1,4-diamine]
- IC50 (T-tropic HIV): ≤ 10000 nM

Compound: CN(Cc1nnc(-c2ccccc2)n1C)C1CCCc2cccnc21 (stereo not drawn) [BP, N-methyl-N-((4-methyl-5-phenyl-4H-1,2,4-triazol-3-yl)methyl)-5,6,7,8-tetrahydroquinolin-8-amine]
- IC50 (T-tropic HIV): ≤ 10000 nM

Compound: NCCCCN(Cc1cn(-c2ccccc2)nn1)C1CCCc2cccnc21 (stereo not drawn) [Z, N-(4-aminobutyl)-N-((1-phenyl-1H-1,2,3-triazol-4-yl)methyl)-5,6,7,8-tetrahydro-quinolin-8-amine tetrahydrochloride]
- IC50 (T-tropic HIV): ≤ 10000 nM

Compound: c1cnc2c(c1)CCCC2N(CCCN1CCNCC1)Cc1nccc2c3ccccc3n(CCN3CCOCC3)c12 (stereo not drawn) [drawing 811]
- IC50 (CXCR4 [1]): 9.3 nM

Compound: NCCCCN(Cc1nccc2c3ccccc3n(CC(=O)NC3CCNCC3)c12)C1CCCc2cccnc21 (stereo not drawn) [drawing 814]
- IC50 (CXCR4 [1]): 12 nM

Compound: NCCCCN(Cc1nccc2c3ccccc3n(CC(=O)N3CCOCC3)c12)[C@H]1CCCc2cccnc21 [drawing 819]
- IC50 (CXCR4 [2]): 12 nM
- EC50 at 6 days [3]: 30000 nM
- inhibition at 5 min, 10 µM (hERG potassium channel): 42%

Compound: NCCCCN(Cc1nccc2c3ccccc3n(CC(=O)O)c12)[C@H]1CCCc2cccnc21 [drawing 820]
- IC50 (CXCR4 [2]): 22 nM
- EC50 at 6 days [3]: 30000 nM
- IC50 [5]: 2700 nM

Compound: NCCCCN(Cc1nccc2c3ccccc3n(CC(=O)NC3CCNCC3)c12)C1CCCc2cccnc21 (stereo not drawn) [drawing 821]
- IC50 (CXCR4 [2]): 126 nM
- EC50 at 6 days [3]: 30000 nM
- inhibition at 5 min, 10 µM (hERG potassium channel): 16%

Compound: NCCCCN(Cc1nccc2c3ccccc3n(CCCN3CCNCC3)c12)[C@H]1CCCc2cccnc21 [drawing 822]
- IC50 (CXCR4 [2]): 16 nM
- EC50 at 6 days [3]: 30000 nM
- IC50 [5]: 4100 nM

Compound: CN1CCN(C(=O)Cn2c3ccccc3c3ccnc(CN(CCCCN)[C@H]4CCCc5cccnc54)c32)CC1 [drawing 823]
- IC50 (CXCR4 [2]): 30 nM
- EC50 at 6 days [3]: 50000 nM
- inhibition at 5 min, 10 µM (hERG potassium channel): 39%

Compound: CC(C)(C)OC(=O)Cn1c2ccccc2c2ccnc(CN(CCCN3CCNCC3)[C@H]3CCCc4cccnc43)c21 [drawing 825]
- IC50 (CXCR4 [2]): 37 nM
- EC50 at 6 days [3]: 600 nM
- inhibition at 5 min, 1 µM (hERG potassium channel): 26%

Compound: C[C@@H]1CN(C(=O)Cn2c3ccccc3c3ccnc(CN(CCCCN)[C@H]4CCCc5cccnc54)c32)C[C@H](C)O1 [drawing 826]
- IC50 (CXCR4 [2]): 123 nM
- EC50 at 6 days [3]: 5300 nM
- inhibition at 5 min, 1 µM (hERG potassium channel): 18%

Compound: NCCCCN(Cc1nccc2c3ccccc3n(CCCN)c12)[C@H]1CCCc2cccnc21 [drawing 827]
- IC50 (CXCR4 [2]): 7 nM
- EC50 at 6 days [3]: 6400 nM
- inhibition at 5 min, 10 µM (hERG potassium channel): 46%

Compound: O=C(O)Cn1c2ccccc2c2ccnc(CN(CCCN3CCNCC3)[C@H]3CCCc4cccnc43)c21 [drawing 828]
- IC50 (CXCR4 [2]): 113 nM
- EC50 at 6 days [3]: > 10000 nM
- inhibition at 5 min, 10 µM (hERG potassium channel): 20%

Compound: NCCCCN(Cc1nccc2c3ccccc3n(CCN3CCNCC3)c12)[C@H]1CCCc2cccnc21 [drawing 829]
- IC50 (CXCR4 [2]): 55 nM
- EC50 at 6 days [3]: > 10000 nM
- inhibition at 5 min, 10 µM (hERG potassium channel): 45%

Compound: c1cnc2c(c1)CCCC2N(CCCN1CCNCC1)Cc1nccc2c3ccccc3n(CCN3CCOCC3)c12 (stereo not drawn) [drawing 830]
- IC50 (CXCR4 [2]): 24 nM
- IC50 [5]: 3100 nM

Compound: NCCCCN(Cc1nccc2c3ccccc3n(CC(N)=O)c12)[C@H]1CCCc2cccnc21 [drawing 832]
- IC50 (CXCR4 [2]): 18 nM
- IC50 [5]: 1800 nM

Compound: TN14003
- EC50 (HIV): 0.6 nM
- concentration leading to 50% toxicity (MT-4 cells): 410
